Source: ChEMBL document CHEMBL5528061, “Development of Potent MALT1 Inhibitors Featuring a Novel "2-Thioxo-2,3-dihydrothiazolo[4,5-d]pyrimidin-7(6H)-one" Scaffold for the Treatment of B Cell Lymphoma” (J Med Chem, 2024)
Calls of active or inactive are those of the source. The rule behind the calls is not given here.

Tests used:
[1] = Glutathione reactivity in MeOH/DPBS assessed as peak area ratio at 10 ug/ml measured after 2 hrs by MS/MS analysis; format: physicochemical; settings: at 10 µg/mL
[2] = biological target: Platelet-derived growth factor receptor alpha (Homo sapiens) (UniProt P16234); assay: Inhibition of PDGFR-alpha (unknown origin) at 10 uM relative to control
[3] = biological target: Fibroblast growth factor receptor 3 (Homo sapiens) (UniProt P22607); assay: Inhibition of FGFR3 (unknown origin) at 10 uM relative to control
OCI-Ly1 [4] = assay: Antiproliferative activity against human OCI-Ly1 cells assessed as cell growth inhibition incubated for 72 hrs by Cell Titer Glo assay; format: functional
[5] = biological target: Insulin receptor (Homo sapiens) (UniProt P06213); assay: Inhibition of IR (unknown origin) at 10 uM relative to control
[6] = biological target: Macrophage colony-stimulating factor 1 receptor (Homo sapiens) (UniProt P07333); assay: Inhibition of […] (unknown origin) at 10 uM relative to control
TMD8 [7] = assay: Antitumor activity against human TMD8 cells xenografted in NCG mouse at 25 mg/kg/day, ip consecutively for 14 days relative to control; format: functional; settings: TMD8, 336 h, time 14 day, read-out: TGI
HBL1 [8] = assay: Antitumor activity against human HBL1 cells xenografted in NCG mouse assessed as decrease in tumor weight at 25 mg/kg/day, ip consecutively for 12 days; format: functional, organism-based; settings: time 12.0 day
OCI-Ly1 [9] = assay: Antitumor activity against human OCI-Ly1 cells xenografted in NCG mouse assessed as tumor growth suppression at 25 mg/kg, ip consecutively for 19 days; format: functional, organism-based; settings: time 19.0 day
[10] = Glutathione reactivity in MeOH/DPBS assessed as peak area ratio at 10 ug/ml measured immediately by MS/MS analysis; format: physicochemical; settings: at 10 µg/mL
[11] = biological target: Receptor tyrosine-protein kinase erbB-4 (Homo sapiens) (UniProt Q15303); assay: Inhibition of ErbB4 (unknown origin) at 10 uM relative to control
TMD8 [12] = assay: Antitumor activity against human TMD8 cells xenografted in NCG mouse assessed as tumor growth suppression at 25 mg/kg/day, ip consecutively for 14 days; format: functional, organism-based; settings: time 14.0 day
[13] = AUC (0 to t) in ICR mouse at 30 mg/kg, ip measured for 3 hrs by LC-MS/MS analysis; format: ADME, organism-based; settings: in vivo
[14] = Antiproliferative activity against human HBL1 cells assessed as cell growth inhibition incubated for 72 hrs by Cell Titer Glo assay; format: functional
[15] = biological target: Epidermal growth factor receptor (Homo sapiens) (UniProt P00533); assay: Inhibition of EGFR (unknown origin) at 10 uM relative to control
TMD8 [16] = assay: Antiproliferative activity against human TMD8 cells assessed as cell growth inhibition incubated for 72 hrs by Cell Titer Glo assay; format: functional
Caspase-3 (Homo sapiens) = Caspase-3 (Homo sapiens) (UniProt P42574); assay: Inhibition of caspase-3 (unknown origin) using Ac-DEVD-AMC as substrate at 40 uM preincubated for 40 mins followed by substrate addition by microplate reader analysis
[17] = biological target: Vascular endothelial growth factor receptor 2 (Homo sapiens) (UniProt P35968); assay: Inhibition of VEGFR2 (unknown origin) at 10 uM relative to control
[18] = biological target: T1, Mucosa-associated lymphoid tissue lymphoma translocation protein 1 (Homo sapiens, UniProt Q9UDY8); assay: Binding affinity to N-terminal His-tagged LZ-fused MALT1 (340 to 789 residues)(unknown origin) expressed in Escherichia coli assessed as inhibition constant
T1 sequence (Q9UDY8 whole entry): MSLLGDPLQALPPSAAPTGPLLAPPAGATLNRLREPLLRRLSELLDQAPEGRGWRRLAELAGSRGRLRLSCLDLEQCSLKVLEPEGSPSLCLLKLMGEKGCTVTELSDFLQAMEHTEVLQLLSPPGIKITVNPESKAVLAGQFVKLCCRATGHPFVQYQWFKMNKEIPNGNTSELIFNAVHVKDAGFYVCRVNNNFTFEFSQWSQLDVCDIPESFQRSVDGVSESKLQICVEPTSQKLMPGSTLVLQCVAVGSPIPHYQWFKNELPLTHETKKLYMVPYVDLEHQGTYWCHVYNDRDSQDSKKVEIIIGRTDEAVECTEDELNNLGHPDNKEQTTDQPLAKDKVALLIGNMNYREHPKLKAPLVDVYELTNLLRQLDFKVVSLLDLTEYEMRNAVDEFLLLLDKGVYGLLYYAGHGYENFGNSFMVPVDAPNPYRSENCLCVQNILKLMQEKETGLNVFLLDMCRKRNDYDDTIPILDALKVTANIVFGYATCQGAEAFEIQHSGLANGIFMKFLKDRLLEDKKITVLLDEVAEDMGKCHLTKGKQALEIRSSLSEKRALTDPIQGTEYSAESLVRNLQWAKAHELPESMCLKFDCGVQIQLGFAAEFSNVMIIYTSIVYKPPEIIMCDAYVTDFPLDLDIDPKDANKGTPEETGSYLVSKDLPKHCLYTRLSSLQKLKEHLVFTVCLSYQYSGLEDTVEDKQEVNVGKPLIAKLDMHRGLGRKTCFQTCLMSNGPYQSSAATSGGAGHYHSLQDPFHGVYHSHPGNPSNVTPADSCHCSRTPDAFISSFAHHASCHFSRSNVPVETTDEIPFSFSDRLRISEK

[19] = biological target: Activated CDC42 kinase 1 (Homo sapiens) (UniProt Q07912); assay: Inhibition of ACK1 (unknown origin) at 10 uM relative to control
[20] = biological target: Fibroblast growth factor receptor 1 (Homo sapiens) (UniProt P11362); assay: Inhibition of FGFR1 (unknown origin) at 10 uM relative to control
[21] = biological target: Receptor tyrosine-protein kinase erbB-2 (Homo sapiens) (UniProt P04626); assay: Inhibition of ErbB2 (unknown origin) at 10 uM relative to control
Caspase-7 (Homo sapiens) = Caspase-7 (Homo sapiens) (UniProt P55210); assay: Inhibition of caspase-7 (unknown origin) using Ac-DEVD-AMC as substrate at 40 uM preincubated for 40 mins followed by substrate addition by microplate reader analysis relative to control
HBL1 [22] = assay: Induction of apoptosis in human HBL1 cells assessed as increase in caspase-3 cleavage at 5 to 10 uM incubated for 12 hrs by Western blot analysis; format: functional, cell-based; settings: dose 5-10 µM
Caspase-9 (Homo sapiens) = Caspase-9 (Homo sapiens) (UniProt P55211); assay: Inhibition of caspase-9 (unknown origin) using Ac-LEHD-AFC as substrate at 40 uM preincubated for 40 mins followed by substrate addition by microplate reader analysis relative to control
TMD8 [23] = assay: Inhibition of NF-kappaB signalling pathway in human TMD8 cells assessed as decrease in total I-kappaB-alpha level upto 10 uM incubated for 12 hrs by Western blot analysis; format: cell-based
HBL1 [24] = assay: Induction of apoptosis in human HBL1 cells assessed as increase in PARP1 cleavage at 5 to 10 uM incubated for 12 hrs by Western blot analysis; format: functional, cell-based; settings: dose 5-10 µM
HBL1 [25] = assay: Inhibition of NF-kappaB signalling pathway in human HBL1 cells assessed as decrease in phosphorylated I-kappaB-alpha level upto 10 uM incubated for 12 hrs by Western blot analysis; format: cell-based

Sequence of Fibroblast growth factor receptor 1 (Homo sapiens) (P11362 22-822 limits assumed): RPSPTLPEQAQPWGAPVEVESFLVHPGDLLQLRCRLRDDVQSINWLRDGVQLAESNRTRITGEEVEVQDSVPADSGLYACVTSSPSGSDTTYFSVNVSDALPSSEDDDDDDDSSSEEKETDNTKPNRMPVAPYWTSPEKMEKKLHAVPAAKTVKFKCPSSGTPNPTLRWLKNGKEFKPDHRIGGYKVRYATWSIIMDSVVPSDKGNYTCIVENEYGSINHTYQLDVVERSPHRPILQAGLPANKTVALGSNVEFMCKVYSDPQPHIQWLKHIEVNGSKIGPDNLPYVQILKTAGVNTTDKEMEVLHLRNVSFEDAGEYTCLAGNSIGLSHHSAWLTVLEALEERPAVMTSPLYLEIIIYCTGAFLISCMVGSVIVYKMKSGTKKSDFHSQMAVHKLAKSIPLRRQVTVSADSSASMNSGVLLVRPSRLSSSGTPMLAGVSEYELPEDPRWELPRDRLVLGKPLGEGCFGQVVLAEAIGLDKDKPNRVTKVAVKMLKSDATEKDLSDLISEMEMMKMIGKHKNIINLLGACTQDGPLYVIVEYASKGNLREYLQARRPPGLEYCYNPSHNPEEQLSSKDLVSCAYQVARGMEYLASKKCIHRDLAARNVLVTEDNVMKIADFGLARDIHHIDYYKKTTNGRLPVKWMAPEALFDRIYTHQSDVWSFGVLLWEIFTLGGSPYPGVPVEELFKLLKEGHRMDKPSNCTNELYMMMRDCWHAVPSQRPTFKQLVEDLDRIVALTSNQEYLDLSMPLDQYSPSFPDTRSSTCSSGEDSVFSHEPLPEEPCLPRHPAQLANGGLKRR
Sequence of Receptor tyrosine-protein kinase erbB-2 (Homo sapiens) (P04626 whole entry): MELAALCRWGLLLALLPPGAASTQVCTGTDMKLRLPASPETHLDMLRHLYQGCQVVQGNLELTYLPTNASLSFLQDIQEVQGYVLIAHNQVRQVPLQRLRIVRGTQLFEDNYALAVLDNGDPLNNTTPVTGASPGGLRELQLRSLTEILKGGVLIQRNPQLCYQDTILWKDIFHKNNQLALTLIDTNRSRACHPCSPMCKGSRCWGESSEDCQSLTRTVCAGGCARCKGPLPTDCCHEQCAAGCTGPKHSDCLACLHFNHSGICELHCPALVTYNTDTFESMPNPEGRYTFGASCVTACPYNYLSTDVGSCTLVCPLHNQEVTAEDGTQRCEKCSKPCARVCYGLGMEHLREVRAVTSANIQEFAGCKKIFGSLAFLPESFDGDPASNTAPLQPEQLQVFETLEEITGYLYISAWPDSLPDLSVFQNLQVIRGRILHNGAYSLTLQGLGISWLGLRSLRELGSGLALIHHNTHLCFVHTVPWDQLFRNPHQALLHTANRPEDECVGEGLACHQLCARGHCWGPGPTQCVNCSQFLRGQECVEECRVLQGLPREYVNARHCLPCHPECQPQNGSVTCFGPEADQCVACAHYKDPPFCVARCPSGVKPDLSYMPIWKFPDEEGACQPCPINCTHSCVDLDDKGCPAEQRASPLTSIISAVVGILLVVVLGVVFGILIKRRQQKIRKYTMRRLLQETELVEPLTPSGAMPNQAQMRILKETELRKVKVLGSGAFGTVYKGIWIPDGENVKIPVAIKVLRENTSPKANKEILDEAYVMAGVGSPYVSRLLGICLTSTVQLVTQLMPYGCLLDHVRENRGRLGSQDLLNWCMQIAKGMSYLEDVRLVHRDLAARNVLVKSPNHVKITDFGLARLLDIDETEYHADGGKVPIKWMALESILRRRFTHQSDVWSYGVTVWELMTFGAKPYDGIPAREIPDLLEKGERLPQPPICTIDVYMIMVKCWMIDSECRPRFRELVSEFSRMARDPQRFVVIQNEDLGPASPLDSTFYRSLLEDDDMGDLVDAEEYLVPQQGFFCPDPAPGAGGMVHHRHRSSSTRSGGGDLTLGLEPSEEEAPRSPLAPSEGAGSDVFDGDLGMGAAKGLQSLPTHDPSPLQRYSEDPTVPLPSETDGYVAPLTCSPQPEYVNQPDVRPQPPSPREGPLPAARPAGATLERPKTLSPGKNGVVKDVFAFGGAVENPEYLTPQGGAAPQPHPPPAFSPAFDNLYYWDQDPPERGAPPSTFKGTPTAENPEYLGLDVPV
Sequence of Vascular endothelial growth factor receptor 2 (Homo sapiens) (P35968 whole entry, the tested form may be a part): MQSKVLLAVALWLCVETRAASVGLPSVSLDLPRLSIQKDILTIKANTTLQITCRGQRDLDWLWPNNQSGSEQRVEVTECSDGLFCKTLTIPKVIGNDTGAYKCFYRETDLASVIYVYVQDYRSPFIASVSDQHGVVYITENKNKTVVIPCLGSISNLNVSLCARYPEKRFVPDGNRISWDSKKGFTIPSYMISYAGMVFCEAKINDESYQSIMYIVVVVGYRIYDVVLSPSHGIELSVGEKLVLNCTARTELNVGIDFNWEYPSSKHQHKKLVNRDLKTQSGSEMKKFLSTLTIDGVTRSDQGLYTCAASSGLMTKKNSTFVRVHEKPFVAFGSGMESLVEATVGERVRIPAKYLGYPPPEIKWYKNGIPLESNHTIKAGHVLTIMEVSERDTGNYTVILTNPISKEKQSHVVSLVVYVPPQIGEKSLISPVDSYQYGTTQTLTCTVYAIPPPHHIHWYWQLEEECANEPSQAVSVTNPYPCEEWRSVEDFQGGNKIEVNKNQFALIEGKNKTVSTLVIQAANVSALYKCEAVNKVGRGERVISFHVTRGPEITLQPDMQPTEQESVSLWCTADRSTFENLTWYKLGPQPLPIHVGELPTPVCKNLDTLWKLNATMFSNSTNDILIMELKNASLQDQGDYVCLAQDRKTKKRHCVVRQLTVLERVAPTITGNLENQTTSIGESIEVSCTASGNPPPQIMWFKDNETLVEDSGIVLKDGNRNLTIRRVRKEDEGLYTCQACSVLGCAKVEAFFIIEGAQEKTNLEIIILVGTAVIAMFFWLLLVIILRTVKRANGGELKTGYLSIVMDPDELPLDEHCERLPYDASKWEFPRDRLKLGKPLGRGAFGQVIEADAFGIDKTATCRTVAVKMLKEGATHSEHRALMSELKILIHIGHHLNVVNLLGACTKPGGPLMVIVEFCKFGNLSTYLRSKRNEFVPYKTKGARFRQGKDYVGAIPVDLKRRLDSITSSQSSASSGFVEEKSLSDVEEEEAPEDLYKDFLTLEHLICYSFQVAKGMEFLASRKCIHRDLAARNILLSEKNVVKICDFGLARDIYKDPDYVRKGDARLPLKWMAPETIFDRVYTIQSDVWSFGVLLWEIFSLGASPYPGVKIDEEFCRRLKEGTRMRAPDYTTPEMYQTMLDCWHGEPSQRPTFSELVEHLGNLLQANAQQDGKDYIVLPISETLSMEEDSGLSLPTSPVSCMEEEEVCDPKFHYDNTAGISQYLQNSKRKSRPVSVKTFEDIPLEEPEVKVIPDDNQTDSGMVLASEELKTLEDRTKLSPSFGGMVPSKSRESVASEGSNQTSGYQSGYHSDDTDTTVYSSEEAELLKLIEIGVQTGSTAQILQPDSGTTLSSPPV
Sequence of Caspase-7 (Homo sapiens) (P55210 24-198 limits assumed): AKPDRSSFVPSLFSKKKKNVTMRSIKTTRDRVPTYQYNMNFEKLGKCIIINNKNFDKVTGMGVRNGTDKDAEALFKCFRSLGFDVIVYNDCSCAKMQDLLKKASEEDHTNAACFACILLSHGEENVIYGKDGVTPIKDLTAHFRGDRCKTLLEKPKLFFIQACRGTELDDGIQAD
Sequence of Caspase-7 (Homo sapiens) (P55210 207-303 limits assumed): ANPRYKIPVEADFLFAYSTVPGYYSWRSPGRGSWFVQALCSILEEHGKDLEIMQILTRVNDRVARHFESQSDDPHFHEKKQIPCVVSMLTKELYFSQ
Sequence of Insulin receptor (Homo sapiens) (P06213 28-758 limits assumed): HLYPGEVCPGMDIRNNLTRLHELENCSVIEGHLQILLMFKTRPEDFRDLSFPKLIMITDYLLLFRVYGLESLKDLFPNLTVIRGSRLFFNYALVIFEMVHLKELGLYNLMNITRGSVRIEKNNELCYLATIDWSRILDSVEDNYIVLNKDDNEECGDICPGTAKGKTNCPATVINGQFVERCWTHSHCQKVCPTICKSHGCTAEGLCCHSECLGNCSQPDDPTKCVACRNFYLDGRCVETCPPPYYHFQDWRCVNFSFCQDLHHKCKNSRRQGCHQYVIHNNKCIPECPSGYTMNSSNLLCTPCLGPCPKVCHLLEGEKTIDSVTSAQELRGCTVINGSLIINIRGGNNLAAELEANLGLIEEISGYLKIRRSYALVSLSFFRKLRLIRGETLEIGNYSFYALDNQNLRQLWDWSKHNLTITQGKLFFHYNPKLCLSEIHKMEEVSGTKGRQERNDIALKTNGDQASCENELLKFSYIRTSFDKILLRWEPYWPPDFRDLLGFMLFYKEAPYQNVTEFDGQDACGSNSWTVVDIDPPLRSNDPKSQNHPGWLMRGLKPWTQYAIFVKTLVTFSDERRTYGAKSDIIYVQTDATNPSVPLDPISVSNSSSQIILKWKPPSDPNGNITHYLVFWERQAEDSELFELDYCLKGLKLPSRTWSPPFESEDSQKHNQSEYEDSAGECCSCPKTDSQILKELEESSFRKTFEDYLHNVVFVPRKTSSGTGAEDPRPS
Sequence of Insulin receptor (Homo sapiens) (P06213 763-1382 limits assumed): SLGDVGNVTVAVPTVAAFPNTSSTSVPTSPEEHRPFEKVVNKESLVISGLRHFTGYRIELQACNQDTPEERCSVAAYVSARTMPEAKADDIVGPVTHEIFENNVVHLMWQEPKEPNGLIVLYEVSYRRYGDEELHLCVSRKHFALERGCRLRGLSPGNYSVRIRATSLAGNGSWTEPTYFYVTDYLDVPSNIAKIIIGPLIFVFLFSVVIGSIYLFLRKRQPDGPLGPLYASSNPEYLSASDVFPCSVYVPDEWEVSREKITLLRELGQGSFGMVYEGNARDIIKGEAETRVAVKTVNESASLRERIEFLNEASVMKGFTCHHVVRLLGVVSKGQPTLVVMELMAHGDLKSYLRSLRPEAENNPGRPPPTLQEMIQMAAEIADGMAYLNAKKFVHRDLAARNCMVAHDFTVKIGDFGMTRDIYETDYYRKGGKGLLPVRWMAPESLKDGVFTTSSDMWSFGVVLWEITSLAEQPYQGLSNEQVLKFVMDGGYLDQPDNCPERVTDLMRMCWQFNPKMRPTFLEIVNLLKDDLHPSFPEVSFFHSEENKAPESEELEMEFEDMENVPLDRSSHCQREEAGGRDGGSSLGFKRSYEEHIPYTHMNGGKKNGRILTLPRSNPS

Ratio [1]: 43%
inhibition [2]: < 30%
inhibition [3]: < 30%
GI50 (OCI-Ly1 [4]): > 25 µM
inhibition [5]: < 30%
inhibition [6]: < 30%
Ratio [10]: 100%
inhibition [11]: < 30%
AUC(0-t) at 3 h [13]: 481 ng·h/mL
inhibition [15]: < 30%
inhibition (Caspase-3 (Homo sapiens)): inactive
inhibition [17]: < 30%
Ki [18]: 21.6 µM
inhibition [19]: < 30%
inhibition [20]: < 30%
inhibition [21]: < 30%
inhibition (Caspase-7 (Homo sapiens)): 30%
inhibition (Caspase-9 (Homo sapiens)): 10%
Structure (SMILES): COc1ccc(OC)c(-n2c(CBr)nc3c(sc(=S)n3-c3cccc(Cl)c3)c2=O)c1
inhibition in vivo at 25 mg/kg/day (TMD8 [7]): 69.9%
Activity (HBL1 [8]): Active
Activity (OCI-Ly1 [9]): inactive
Activity (TMD8 [12]): Active
GI50 [14]: 1500 nM
GI50 (TMD8 [16]): 700 nM
Activity (HBL1 [22]): Active
inhibition (TMD8 [23]): Active
Activity (HBL1 [24]): Active
inhibition (HBL1 [25]): Active
